Here are results for eleven compounds from ChEMBL document CHEMBL1145982, “Novel dihydrofolate reductase inhibitors. Structure-based versus diversity-based library design and high-throughput synthesis and screening” (J Med Chem, 2003).

The species entered for one assay is Homo sapiens. Briefly: Selectivity ratio against human and […] ATCC 49619 dihydrofolate reductase.
Assay [1] has as its target T1, Dihydrofolate reductase (Staphylococcus aureus, UniProt P0A017). Briefly: Inhibitory activity against TMP-Resistance Dihydrofolate reductase from Staphylococcus aureus 157/4696.
Assay [2] deals with T1, Dihydrofolate reductase. Kind of assay: Inhibitory activity of TMP-Resistance DHFR against Staphylococcus aureus 157/4696.
Assay [3] has as its target T1, Dihydrofolate reductase. Kind of assay: Tested for inhibition of TMP-Resistant Dihydrofolate reductase from Staphylococcus aureus 157/4696.
Assay [4] concerns the target T2, Dihydrofolate reductase (Homo sapiens) (UniProt P00374).
T2 sequence (whole entry): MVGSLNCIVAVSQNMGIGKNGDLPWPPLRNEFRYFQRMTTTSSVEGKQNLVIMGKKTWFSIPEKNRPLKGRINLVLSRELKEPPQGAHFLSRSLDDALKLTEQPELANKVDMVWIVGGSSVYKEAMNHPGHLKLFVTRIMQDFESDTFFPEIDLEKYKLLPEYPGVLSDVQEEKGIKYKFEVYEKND
To be noted: Staphylococcus; ATCC 49619.
Description: Antibacterial activity of TMP-susceptible DHFR against Staphylococcus pneumoniae ATCC 49619

The target in assay [5] is T2, Dihydrofolate reductase (Homo sapiens). To be noted: Staphylococcus.
Description: Antibacterial activity against TMP-Resistant Dihydrofolate reductase from Staphylococcus aureus 157/4696
Assay [6] has as its target Dihydrofolate reductase (Staphylococcus aureus) (UniProt P0A017).
Description: Tested for inhibition of TMP-Resistant Dihydrofolate reductase from Staphylococcus pneumoniae 1/1.
The target in assay [7] is T2, Dihydrofolate reductase (Homo sapiens). The note with it: Staphylococcus; ATCC 49619. The source holds these as a separate data set.
Description: Antibacterial activity against TMP-susceptible DHFR from Staphylococcus pneumoniae ATCC 49619
Assay [8] has the same target. The note with it: Staphylococcus. This is another data set of the same source.
Description: Inhibitory activity of TMP-Resistance Dihydrofolate reductase against Staphylococcus aureus 157/4696

In brackets after ≈: the same amount, converted by molar mass.

T1 sequence (P0A017 2-159 limits assumed): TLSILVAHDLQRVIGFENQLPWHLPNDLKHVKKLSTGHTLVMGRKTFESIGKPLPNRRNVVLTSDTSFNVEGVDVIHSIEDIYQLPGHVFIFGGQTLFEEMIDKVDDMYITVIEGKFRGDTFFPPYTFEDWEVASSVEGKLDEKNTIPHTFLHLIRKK
Chain of Dihydrofolate reductase (Staphylococcus aureus) (P0A017 2-159 limits assumed): as above

Turning to `COc1cc2c(cc1OC)C(C)N(Cc1cnc(N)nc1N)CC2` (centres undefined), in the assay filed under Homo sapiens, the Ratio came out at 15.

As to `CC1c2cc(Cc3ccccc3)c(-c3ccccc3)n2CCN1Cc1cnc(N)nc1N` (centres undefined), the Ratio in the assay listed under Homo sapiens is 40.

For `CC1c2ccc3c4ccccc4n(C)c3c2CCN1Cc1cnc(N)nc1N` (centres undefined), in the assay filed under Homo sapiens, the Ratio stood at 21.

On to `Nc1ncc(CN2CCc3ccccc3C2)c(N)n1`, for which the midpoint of inhibition against Dihydrofolate reductase [1], the IC50, lay at 40 µM. Further, the Ratio in the assay filed under Homo sapiens is above 90.

Take `COc1cc2c(c3c1OCO3)[C@H](C)N(Cc1cnc(N)nc1N)CC2`: the concentration for half-maximal inhibition (IC50) against Dihydrofolate reductase [1] worked out at 5.4 µM.

As to `COc1cc2c(cc1OC)CN(Cc1cnc(N)nc1N)CC2`, the half-inhibitory concentration (IC50) at Dihydrofolate reductase [2] is 30 µM; against Dihydrofolate reductase [3] it was above 100 µM. For the same compound, the MIC was 0.5 µg/mL (≈ 1.59 µM) in assay [4]; 4 µg/mL (≈ 12.7 µM) in [5]; above 32 µg/mL in [6]; 0.5 µg/mL (≈ 1.59 µM) in assay [7]; 4 µg/mL (≈ 12.7 µM) in [8].

As to `Nc1ncc(CN2CCc3c([nH]c4ccccc34)C2)c(N)n1`, the Ratio in the assay listed under Homo sapiens was found to be 45000.

Take `COc1cc2c(cc1OC)C(c1ccc(Cl)cc1Cl)CN(Cc1cnc(N)nc1N)C2` (centres undefined): the IC50 at Dihydrofolate reductase [1] was found to be 2 µM. In addition, the Ratio in the assay listed under Homo sapiens amounted to 243.

As for `CSc1c2n(c3cc(Cl)ccc13)CCN(Cc1cnc(N)nc1N)C2`, the Ratio in the assay listed under Homo sapiens came to 2600.

For the compound `COc1ccc2c(c1)CN(Cc1cnc(N)nc1N)CC2c1cccc([N+](=O)[O-])c1` (centres undefined), the Ratio in the assay listed under Homo sapiens is 16700.

In turn, `COc1cc2c(c3c1OCO3)[C@@H](C)N(Cc1cnc(N)nc1N)CC2` returned an IC50 against Dihydrofolate reductase [1] of 1.3 µM.

For orientation: IC50 means the concentration that gives 50% inhibition.
